Measured values published in ChEMBL document CHEMBL5150064 (J Med Chem, 2022).
pEC50, pKi: −log10 of the molar value. Values after ≈ are worked out from the molar mass of the structure shown. Active and inactive are the calls of the source. No cut-off for these calls is given here.

How the values were obtained:
[1] = biological target: Phosphatidylinositol 4,5-bisphosphate 3-kinase catalytic subunit alpha isoform (Homo sapiens, UniProt P42336); experiment: Inhibition of PI3Kalpha (unknown origin) using PIP2:3PS as substrate in presence of ATP measured after 120 mins by ADP-Glo assay
[2] = organism: Homo sapiens; experiment: Selectivity ratio of Ki for PI3Kdelta (unknown origin) to Ki for PI3Kalpha (unknown origin)
[3] = Lipophilicity, logD of compound in 1-Octanol/PBS at pH 7.4 by LC-MS/MS method; format: physicochemical
[4] = Kinetic solubility of the compound at pH 7.4; format: physicochemical; details: buffer, read-out: Kinetic_solubility
[5] = Clearance in Sprague-Dawley rat plasma at 1 mg/kg, iv measured upto 8 hrs by LC-MS/MS analysis; format: ADME, organism-based
[6] = biological target: Phosphatidylinositol 4,5-bisphosphate 3-kinase catalytic subunit alpha isoform (Homo sapiens, UniProt P42336, H1047R)
[7] = organism: Homo sapiens; experiment: Selectivity ratio of EC50 for PI3Kalpha H1047R mutant in human HCC1954 cells assessed as reduction in PRAS40 phosphorylation to EC50 for wild type PI3Kalpha in human HDQ-P1 cells assessed as reduction in PRAS40 phosphorylation; format: cell-based
[8] = Apparent permeability across apical to basolateral side in MDCK cells at 10 uM measured upto 180 mins by LC-MS/MS method; format: ADME, cell-based, Canis lupus familiaris; details: dog
[9] = Oral bioavailability in Sprague-Dawley rat plasma at 5 mg/kg measured upto 8 hrs by LC-MS/MS method; format: ADME, organism-based
[10] = test system: Phosphatidylinositol 4,5-bisphosphate 3-kinase catalytic subunit alpha isoform (Homo sapiens), P42336 [H1047R]; experiment: Induction of P110alpha H1047R mutant degradation in human HCC1954 cells at 0.012 to 1 uM after 24 hrs; format: cell-based; details: dose 0.012-1 µM
Phosphatidylinositol 4,5-bisphosphate 3-kinase catalytic subunit alpha isoform (Homo sapiens), P42336 [H1047R], sequence (P42336 whole entry H1047R, canonical isoform): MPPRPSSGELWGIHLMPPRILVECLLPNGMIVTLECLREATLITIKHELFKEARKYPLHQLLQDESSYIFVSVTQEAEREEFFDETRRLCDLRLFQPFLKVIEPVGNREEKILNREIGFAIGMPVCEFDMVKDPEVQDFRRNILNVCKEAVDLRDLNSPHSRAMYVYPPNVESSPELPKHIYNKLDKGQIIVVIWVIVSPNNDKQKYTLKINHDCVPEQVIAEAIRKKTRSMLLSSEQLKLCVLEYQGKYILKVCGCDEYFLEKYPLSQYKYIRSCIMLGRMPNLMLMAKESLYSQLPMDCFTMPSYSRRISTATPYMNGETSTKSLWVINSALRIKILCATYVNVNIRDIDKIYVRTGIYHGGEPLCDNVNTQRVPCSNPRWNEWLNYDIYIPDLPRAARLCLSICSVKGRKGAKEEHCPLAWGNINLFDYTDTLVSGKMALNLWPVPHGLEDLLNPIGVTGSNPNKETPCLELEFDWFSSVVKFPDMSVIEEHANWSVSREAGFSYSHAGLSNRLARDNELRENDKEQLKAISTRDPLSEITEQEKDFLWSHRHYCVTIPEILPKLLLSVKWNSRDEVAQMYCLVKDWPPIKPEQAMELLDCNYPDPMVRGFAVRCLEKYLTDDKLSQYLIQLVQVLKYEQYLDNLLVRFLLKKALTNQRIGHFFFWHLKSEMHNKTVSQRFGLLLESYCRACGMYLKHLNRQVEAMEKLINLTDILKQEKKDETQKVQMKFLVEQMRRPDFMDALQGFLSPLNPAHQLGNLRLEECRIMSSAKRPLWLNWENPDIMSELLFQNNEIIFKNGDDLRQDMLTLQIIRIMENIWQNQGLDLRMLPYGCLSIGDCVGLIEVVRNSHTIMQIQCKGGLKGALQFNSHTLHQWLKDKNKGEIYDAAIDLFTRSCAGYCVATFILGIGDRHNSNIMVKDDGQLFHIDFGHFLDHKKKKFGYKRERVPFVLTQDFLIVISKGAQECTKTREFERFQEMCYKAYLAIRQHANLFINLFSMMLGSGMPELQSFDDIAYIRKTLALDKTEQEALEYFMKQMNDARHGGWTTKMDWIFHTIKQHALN

Phosphatidylinositol 4,5-bisphosphate 3-kinase catalytic subunit alpha isoform (Homo sapiens, UniProt P42336), sequence (P42336 whole entry, canonical isoform): as the sequence (P42336 whole entry H1047R, canonical isoform) above, with R1047H counted along it
Phosphatidylinositol 4,5-bisphosphate 3-kinase catalytic subunit alpha isoform (Homo sapiens, UniProt P42336, H1047R), sequence (P42336 whole entry H1047R, canonical isoform): as the sequence (P42336 whole entry H1047R, canonical isoform) above

| Structure (SMILES) | pKi [1] | Ratio Ki [2] | logD [3] | solubility kinetic [4] | clearance [5] | pEC50 [6] | Ratio EC50 [7] | Papp A→B at 3 h, 10 µM [8] | bioavailability [9] | Activity [10] |
| --- | --- | --- | --- | --- | --- | --- | --- | --- | --- | --- |
| NC(=O)[C@@H]1COCCN1c1ccc2c(c1)OCCn1cc(N3C(=O)OC[C@H]3C(F)(F)F)nc1-2 | 8.53 | 13 |  |  |  |  |  |  |  |  |
| NC(=O)[C@@H]1CCCN1c1ccc2c(c1)OCCn1cc(N3CCCOCC3=O)nc1-2 | 9.49 | 15 | 0.7 | 11 µM (≈ 4.53 µg/mL) |  |  |  |  |  |  |
| NC(=O)[C@@H]1[C@H](F)CCN1c1ccc2c(c1)OCCn1cc(N3C(=O)OC[C@H]3C(F)(F)F)nc1-2 | 9.54 | 25 |  |  |  |  |  |  |  |  |
| C[C@H](Oc1ccc2c(c1)OCCn1cc(N3C(=O)OC[C@H]3C(F)F)nc1-2)C(N)=O |  | 52 |  |  |  |  |  |  |  |  |
| CC[C@H](Nc1ccc2c(c1)OCCn1cc(N3C(=O)OC[C@H]3C(F)(F)F)nc1-2)C(N)=O | 9.80 | 146 | 1.4 |  | 91 mL/min/kg | 7.25 | 3.6 | 1.7 ×10⁻⁶ cm/s | 82% |  |
| NC(=O)[C@@H]1CCCN1c1ccc2c(c1)OCCn1cc(N3CCOCCC3=O)nc1-2 | 8.42 | 6 | 0.7 | 44 µM (≈ 18.1 µg/mL) |  |  |  |  |  |  |
| NC(=O)[C@@H]1CCCN1c1ccc2c(c1)OCCn1cc(N3C(=O)CC[C@H]3C(F)(F)F)nc1-2 | 9.10 |  | 1.6 |  |  |  |  |  |  |  |
| C[C@H]1CN(c2cn3c(n2)-c2ccc(N4CCC[C@H]4C(N)=O)cc2OCC3)C(=O)O1 | 8.19 | 6 | 1.1 | 20 µM (≈ 7.95 µg/mL) |  |  |  |  |  |  |
| NC(=O)[C@@H]1CCCN1c1ccc2c(c1)OCCn1cc(N3CCCOC3=O)nc1-2 | 7.52 | 9 |  |  |  |  |  |  |  |  |
| CC1(C)C(=O)NC(=O)N1c1cn2c(n1)-c1ccc(N3CCC[C@H]3C(N)=O)cc1OCC2 | 9.17 | 5 | 0.7 | 114 µM (≈ 48.4 µg/mL) |  |  |  | 0.3 ×10⁻⁶ cm/s |  |  |
| CC(C)n1nc(N)nc1-c1cn2c(n1)-c1ccc(N3CCC[C@H]3C(N)=O)cc1OCC2 | 10.59 | 8 | 1.5 | 92 µM (≈ 38.9 µg/mL) |  |  |  | 0.3 ×10⁻⁶ cm/s |  |  |
| CC(C)[C@@H]1COC(=O)N1c1cn2c(n1)-c1ccc(N3CCC[C@H]3C(N)=O)cc1OCC2 | 10.38 | 22 | 1.8 | 131 µM (≈ 55.7 µg/mL) |  |  |  | 8.4 ×10⁻⁶ cm/s |  |  |
| COC[C@@H]1COC(=O)N1c1cn2c(n1)-c1ccc(N3CCC[C@H]3C(N)=O)cc1OCC2 | 8.49 | 8 | 0.8 | 137 µM (≈ 58.6 µg/mL) |  |  |  |  |  |  |
| NC(=O)[C@@H]1CCCN1c1ccc2c(c1)OCCn1cc(N3CCn4nccc4C3=O)nc1-2 | 9.36 | 7 | 1.2 | 2 µM (≈ 0.867 µg/mL) |  |  |  |  |  |  |
| C[C@H](Nc1ccc2c(c1)OCCn1cc(N3C(=O)OC[C@H]3C(F)(F)F)nc1-2)C(N)=O | 10.02 | 171 | 0.9 |  | 57 mL/min/kg | 7.31 | 2.7 | 1 ×10⁻⁶ cm/s | 65% |  |
| C[C@@H]1COC(=O)N1c1cn2c(n1)-c1ccc(N3CCC[C@H]3C(N)=O)cc1OCC2 |  | 24 | 0.7 | 150 µM (≈ 59.6 µg/mL) | 23 mL/min/kg |  |  | 2.1 ×10⁻⁶ cm/s | 59% |  |
| NC(=O)[C@@H]1CCCN1c1ccc2c(c1)OCCn1cc(N3CCOCC3=O)nc1-2 | 8.60 | 8 | 0.7 | 65 µM (≈ 25.8 µg/mL) |  |  |  |  |  |  |
| NC(=O)[C@@H](Nc1ccc2c(c1)OCCn1cc(N3C(=O)OC[C@H]3C(F)(F)F)nc1-2)C1CCC1 | 9.49 | 182 |  |  |  |  |  |  |  |  |
| NC(=O)[C@@H]1CCCN1c1ccc2c(c1)OCCn1cc(N3C(=O)OC[C@H]3C(F)(F)F)nc1-2 | 9.82 | 15 | 1.4 | 130 µM (≈ 58.7 µg/mL) | 35 mL/min/kg | 7.40 |  | 3.2 ×10⁻⁶ cm/s | 57% | Active |
| CO[C@H]1CCN(c2cn3c(n2)-c2ccc(N4CCC[C@H]4C(N)=O)cc2OCC3)C1=O | 8.50 | 4 | 0.9 | 154 µM (≈ 63.4 µg/mL) |  |  |  | 2.6 ×10⁻⁶ cm/s |  |  |
| CC(C)n1nc(N)nc1-c1cn2c(n1)-c1ccc(O[C@@H](C)C(N)=O)cc1OCC2 | 9.97 | 17 | 1.1 |  |  | 7.19 | 3.1 | 0.5 ×10⁻⁶ cm/s |  |  |
| NC(=O)[C@@H]1CCCN1c1ccc2c(c1)OCCn1cc(N3CCOC3=O)nc1-2 | 8.24 | 15 | 0.6 | 200 µM (≈ 76.7 µg/mL) |  |  |  | 3.1 ×10⁻⁶ cm/s |  |  |
| C[C@H](Oc1ccc2c(c1)OCCn1cc(-c3ncnn3CC(F)(F)F)nc1-2)C(N)=O |  | 14 | 2.2 |  |  |  |  |  |  |  |
| C[C@H](Oc1ccc2c(c1)OCCn1cc(-c3nc(CO)nn3CC(F)(F)F)nc1-2)C(N)=O | 10.21 | 15 | 1.5 |  | 50 mL/min/kg | 7.41 | 9.5 | 1.5 ×10⁻⁶ cm/s | 5% |  |
| CC(C)[C@H](Nc1ccc2c(c1)OCCn1cc(N3C(=O)OC[C@H]3C(F)(F)F)nc1-2)C(N)=O | 9.16 | 94 | 1.7 |  | 61 mL/min/kg | 6.80 | 2.3 | 1.9 ×10⁻⁶ cm/s | 137% |  |
| CO[C@@H]1CCN(c2ccc3c(c2)OCCn2cc(N4C(=O)OC[C@H]4C(F)(F)F)nc2-3)[C@@H]1C(N)=O | 10.01 | 27 |  |  |  |  |  |  |  |  |
| NC(=O)[C@@H](Nc1ccc2c(c1)OCCn1cc(N3C(=O)OC[C@H]3CF)nc1-2)C1CC1 |  |  | 0.7 |  | 63 mL/min/kg |  |  | 0.8 ×10⁻⁶ cm/s |  |  |
| C[C@@H]1CN(c2cn3c(n2)-c2ccc(N4CCC[C@H]4C(N)=O)cc2OCC3)C(=O)O1 | 7.94 | 15 | 1.1 | 52 µM (≈ 20.7 µg/mL) |  |  |  |  |  |  |
